Results published in US8106050B2, “Derivatives of pyrrolo-pyrazines having a kinase inhibitory activity and their biological applications” (Centre National de la Recherche Scientifique (C.N.R.S.), priority 2002, dated 2012).
Read-outs that look alike come from different tables or passages of the source.

Experiments:
[1] = molecular target: CDK1/cyclin B; test: CDK1/cyclin B kinase assay (histone H1, 15 μM ATP); type: biochemical, starfish (Marthasterias glacialis); settings: for IC50: 15 μM ATP, Table 1
Procedure: (§1) Blank values were subtracted and activities calculated as pmoles of phosphate incorporated for a 10 min. incubation. […] Controls were performed with appropriate dilutions of dimethylsulfoxide. In a few cases phosphorylation of the substrate was assessed by autoradiography after SDS-PAGE.
CDK1/cyclin B was extracted in homogenisation buffer from M phase starfish (Marthasterias glacialis) oocytes and purified by affinity chromatography on p9^CKShs1-sepharose beads, from which it was eluted by free p9^CKShs1. […] ATP (3,000 Ci/mmol; 1 mCi/ml) in a final volume of 30 μl. After 10 min. incubation at 30° C., 25 μl aliquots of supernatant were spotted onto P81 phosphocellulose papers and treated as described above.
(§2) Kinases were assayed as above described in the presence of increasing concentrations of aloisines.

[2] = molecular target: CDK5/p25 (Homo sapiens, UniProt Q00535); test: CDK5/p25 kinase assay (histone H1, 15 μM ATP); type: biochemical, mammalian; settings: Table 1
Chain of CDK5/p25 (Q00535 whole entry, species assumed): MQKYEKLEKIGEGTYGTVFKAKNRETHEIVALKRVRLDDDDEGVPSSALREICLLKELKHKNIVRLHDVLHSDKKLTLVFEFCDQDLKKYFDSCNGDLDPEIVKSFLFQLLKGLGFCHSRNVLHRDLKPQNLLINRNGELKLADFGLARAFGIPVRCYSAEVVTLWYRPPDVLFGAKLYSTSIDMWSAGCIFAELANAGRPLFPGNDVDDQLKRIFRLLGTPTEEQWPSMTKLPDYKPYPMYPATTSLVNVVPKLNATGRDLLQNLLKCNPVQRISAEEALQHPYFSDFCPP
Chain of CDK5/p25 (Q15078 99-307 partner limits assumed, species assumed): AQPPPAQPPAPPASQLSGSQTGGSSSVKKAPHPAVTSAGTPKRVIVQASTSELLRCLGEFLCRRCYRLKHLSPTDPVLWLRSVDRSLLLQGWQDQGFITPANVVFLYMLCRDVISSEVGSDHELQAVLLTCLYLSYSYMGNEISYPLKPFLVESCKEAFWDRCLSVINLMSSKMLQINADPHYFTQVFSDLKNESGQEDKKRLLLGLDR
Procedure: as §1
CDK5/p25 was reconstituted by mixing equal amounts of recombinant mammalian CDK5 and p25 expressed in E. coli as GST (Glutathione-S-transferase) fusion proteins and purified by affinity chromatography on glutathione-agarose (p25 is a truncated version of p35, the 35 kDa CDK5 activator). Its activity was assayed in buffer C as described for CDK1/cyclin B.
as §2

[3] = molecular target: GSK-3α/β; test: GSK-3 kinase assay (GS-1 peptide, 15 μM ATP); type: biochemical, porcine
Procedure: as §1
GSK-3α/β was either purified from porcine brain or expressed in and purified from insect Sf9 cells. […] ATP (3,000 Ci/mmol; 1 mCi/ml) in a final volume of 30 μl. After 30 min. incubation at 30° C., 25 μl aliquots of supernatant were spotted onto 2.5×3 cm pieces of Whatman P81 phosphocellulose paper, and, 20 sec. later, the filters were washed five times (for at least 5 min. each time) in a solution of 10 ml phosphoric acid/liter of water. The wet filters were counted in the presence of 1 ml ACS (Amersham) scintillation fluid.
as §2

[4] = molecular target: T1, CDK4/cyclin D1 (Homo sapiens, UniProt P11802); test: Kinase selectivity panel; type: biochemical; settings: 15 μM ATP
T1 construct: made in house
T1 sequence (P11802 whole entry, species assumed): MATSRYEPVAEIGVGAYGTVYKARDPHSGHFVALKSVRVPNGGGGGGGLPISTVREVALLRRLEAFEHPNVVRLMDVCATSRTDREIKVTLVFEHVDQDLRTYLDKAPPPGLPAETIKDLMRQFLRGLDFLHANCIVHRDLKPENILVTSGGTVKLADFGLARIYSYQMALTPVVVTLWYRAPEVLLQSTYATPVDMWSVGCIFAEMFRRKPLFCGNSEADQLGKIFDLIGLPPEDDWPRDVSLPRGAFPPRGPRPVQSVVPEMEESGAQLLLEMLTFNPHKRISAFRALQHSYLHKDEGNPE
T1 sequence (P24385 whole entry partner, species assumed): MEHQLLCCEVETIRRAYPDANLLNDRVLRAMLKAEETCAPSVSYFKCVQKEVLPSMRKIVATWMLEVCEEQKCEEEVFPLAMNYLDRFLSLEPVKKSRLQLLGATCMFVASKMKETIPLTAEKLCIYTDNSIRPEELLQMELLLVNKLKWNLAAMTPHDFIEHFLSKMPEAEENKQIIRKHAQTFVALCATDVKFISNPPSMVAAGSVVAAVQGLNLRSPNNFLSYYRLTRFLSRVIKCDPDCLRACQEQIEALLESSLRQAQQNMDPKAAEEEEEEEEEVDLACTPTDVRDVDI

[5] = molecular target: T2, erk1 (Homo sapiens, UniProt P27361); test: Kinase selectivity panel; type: biochemical; settings: 15 μM ATP
T2 construct: made in house
T2 sequence (P27361 whole entry, species assumed): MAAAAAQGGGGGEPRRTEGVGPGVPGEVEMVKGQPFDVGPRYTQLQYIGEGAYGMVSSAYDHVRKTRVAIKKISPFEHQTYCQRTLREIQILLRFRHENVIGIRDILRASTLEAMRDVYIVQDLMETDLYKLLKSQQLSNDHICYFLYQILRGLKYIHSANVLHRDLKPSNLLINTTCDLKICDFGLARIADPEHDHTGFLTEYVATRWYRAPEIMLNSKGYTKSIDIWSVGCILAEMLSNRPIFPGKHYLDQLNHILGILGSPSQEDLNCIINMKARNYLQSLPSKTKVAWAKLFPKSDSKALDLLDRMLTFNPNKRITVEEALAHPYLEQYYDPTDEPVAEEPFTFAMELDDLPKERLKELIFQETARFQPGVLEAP

[6] = molecular target: T3, erk2 (Homo sapiens, UniProt P28482); test: Kinase selectivity panel; type: biochemical; settings: 15 μM ATP
T3 construct: made in house
T3 sequence (P28482 whole entry, species assumed): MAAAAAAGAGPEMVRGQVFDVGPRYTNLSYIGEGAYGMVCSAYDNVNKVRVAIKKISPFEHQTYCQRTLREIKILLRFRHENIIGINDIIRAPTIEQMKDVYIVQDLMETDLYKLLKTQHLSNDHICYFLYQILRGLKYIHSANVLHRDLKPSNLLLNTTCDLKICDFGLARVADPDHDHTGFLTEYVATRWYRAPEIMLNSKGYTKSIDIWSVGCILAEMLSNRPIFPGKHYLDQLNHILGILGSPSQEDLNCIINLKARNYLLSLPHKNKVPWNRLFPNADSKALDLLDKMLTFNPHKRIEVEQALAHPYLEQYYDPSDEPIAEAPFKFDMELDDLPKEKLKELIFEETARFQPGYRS

[7] = molecular target: MAPKK; test: Kinase selectivity panel; type: biochemical; settings: 15 μM ATP
[8] = molecular target: c-Jun N-terminal kinase; test: Kinase selectivity panel; type: biochemical; settings: 15 μM ATP
[9] = molecular target: T4, protein kinase C η (Homo sapiens, UniProt P24723); test: Kinase selectivity panel; type: biochemical; settings: 15 μM ATP
T4 construct: made in house
T4 sequence (P24723 whole entry): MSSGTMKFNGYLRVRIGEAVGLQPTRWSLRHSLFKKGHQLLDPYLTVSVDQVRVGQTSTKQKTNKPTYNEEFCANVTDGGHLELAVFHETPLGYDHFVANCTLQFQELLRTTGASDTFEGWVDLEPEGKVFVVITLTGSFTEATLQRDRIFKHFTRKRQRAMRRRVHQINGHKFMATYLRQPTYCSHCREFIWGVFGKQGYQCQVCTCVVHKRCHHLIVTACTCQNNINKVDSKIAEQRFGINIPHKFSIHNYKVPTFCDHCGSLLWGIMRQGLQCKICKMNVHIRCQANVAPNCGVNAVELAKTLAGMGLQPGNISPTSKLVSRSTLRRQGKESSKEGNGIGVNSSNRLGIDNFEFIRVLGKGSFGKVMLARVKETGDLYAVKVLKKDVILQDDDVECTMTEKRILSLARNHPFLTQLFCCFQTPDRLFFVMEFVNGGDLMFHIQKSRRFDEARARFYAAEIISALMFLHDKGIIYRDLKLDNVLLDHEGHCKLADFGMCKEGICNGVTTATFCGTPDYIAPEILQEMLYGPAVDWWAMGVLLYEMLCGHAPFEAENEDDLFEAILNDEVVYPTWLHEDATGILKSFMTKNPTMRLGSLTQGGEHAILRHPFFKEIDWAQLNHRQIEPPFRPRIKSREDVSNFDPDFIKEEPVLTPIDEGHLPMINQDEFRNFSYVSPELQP

[10] = molecular target: Casein kinase 1; test: Kinase selectivity panel; type: biochemical; settings: 15 μM ATP
[11] = molecular target: Casein kinase 2; test: Kinase selectivity panel; type: biochemical; settings: 15 μM ATP
[12] = system: NT2 cells; test: Cell cycle analysis by flow cytometry; type: cell-based, human
Procedure: (§3) Clonal human NT2 teraterocarcinoma cells were obtained from Stratagene (La Jolla, Calif.) and grown in Dulbecco's Modified Eagle Medium: Nutrient Mixture F-12 with 2 mM L-Glutamine (BIO […]) supplemented with 5% FCS and containing penicillin (20 UI/ml) and streptomycin (20 μg/ml) at 37° C., in a humidified atmosphere containing 5% CO2 in air.
(§4) Exponentially growing cells were incubated for 24 h with aloisine A (stock solution dissolved in dimethylsulfoxide). Nocodazole treatment of cells was performed at a concentration of 0.04 μg nocodazole/ml of medium for 24 h. Following the nocodazole treatment, cells were washed twice with fresh medium and cultured with or without aloisine A for 24 h. To perform serum deprivation, cells were maintained in serum-free medium for 40 h. Following serum deprivation, cells were washed twice and cultured in fresh serum-containing medium with or without aloisine A for 40 h.
Cells were trypsinised, collected by centrifugation and fixed in cold 70% ethanol for at least 4 h. Fixed cells were washed in PBS, incubated with 10 μg RNAse A/ml and stained with 25 μg propidium iodide/ml for 1 h at 37° C. The stained cells were then analysed for cell cycle distribution on a FACSort flow cytometer (Becton Dickinson). Cell cycle analyses were performed multiCYCLE (18).
The effect of aloisine A on the cell cycle distribution was investigated for NT2 cells by flow cytometry. Unsynchronised cells (FIG. 4E) were exposed to 20 μM aloisine A for 40 h (FIG. 4F).
The effects of aloisine A on NT2 cells synchronized either in G0/G1 by serum deprivation or in G2/M by nocodazole treatment was also investigated. The results are given on FIG. 4: the cell cycle phase distribution was analysed by flow cytometry following propidium iodide staining. (A, B, C). NT2 cells were synchronized by serum deprivation for […] (A), then cultured for 40 h in fresh medium without (B) or with 20 μM aloisine A (C). (D, E, F). NT2 cells were synchronized by nocodazole treatment ([…]) for 24 h (D), then cultured for 40 h in fresh medium without (E) or with 20 μM aloisine A (F).

[13] = system: NT2 cells; test: Exponential cell growth of NT2 cells; type: cell-based, human; settings: figure legend FIGS. 4A to 4E
Procedure: as §3, §4
The formazan products were dissolved in DMSO and quantified by measurement of the absorbance at 562 nm.

[14] = molecular target: Insulin receptor tyrosine kinase (Homo sapiens, UniProt P06213); settings: read-out: IC50 Insulin receptor tyrosine kinase; 15 μM ATP
Chain of Insulin receptor tyrosine kinase (P06213 28-1382): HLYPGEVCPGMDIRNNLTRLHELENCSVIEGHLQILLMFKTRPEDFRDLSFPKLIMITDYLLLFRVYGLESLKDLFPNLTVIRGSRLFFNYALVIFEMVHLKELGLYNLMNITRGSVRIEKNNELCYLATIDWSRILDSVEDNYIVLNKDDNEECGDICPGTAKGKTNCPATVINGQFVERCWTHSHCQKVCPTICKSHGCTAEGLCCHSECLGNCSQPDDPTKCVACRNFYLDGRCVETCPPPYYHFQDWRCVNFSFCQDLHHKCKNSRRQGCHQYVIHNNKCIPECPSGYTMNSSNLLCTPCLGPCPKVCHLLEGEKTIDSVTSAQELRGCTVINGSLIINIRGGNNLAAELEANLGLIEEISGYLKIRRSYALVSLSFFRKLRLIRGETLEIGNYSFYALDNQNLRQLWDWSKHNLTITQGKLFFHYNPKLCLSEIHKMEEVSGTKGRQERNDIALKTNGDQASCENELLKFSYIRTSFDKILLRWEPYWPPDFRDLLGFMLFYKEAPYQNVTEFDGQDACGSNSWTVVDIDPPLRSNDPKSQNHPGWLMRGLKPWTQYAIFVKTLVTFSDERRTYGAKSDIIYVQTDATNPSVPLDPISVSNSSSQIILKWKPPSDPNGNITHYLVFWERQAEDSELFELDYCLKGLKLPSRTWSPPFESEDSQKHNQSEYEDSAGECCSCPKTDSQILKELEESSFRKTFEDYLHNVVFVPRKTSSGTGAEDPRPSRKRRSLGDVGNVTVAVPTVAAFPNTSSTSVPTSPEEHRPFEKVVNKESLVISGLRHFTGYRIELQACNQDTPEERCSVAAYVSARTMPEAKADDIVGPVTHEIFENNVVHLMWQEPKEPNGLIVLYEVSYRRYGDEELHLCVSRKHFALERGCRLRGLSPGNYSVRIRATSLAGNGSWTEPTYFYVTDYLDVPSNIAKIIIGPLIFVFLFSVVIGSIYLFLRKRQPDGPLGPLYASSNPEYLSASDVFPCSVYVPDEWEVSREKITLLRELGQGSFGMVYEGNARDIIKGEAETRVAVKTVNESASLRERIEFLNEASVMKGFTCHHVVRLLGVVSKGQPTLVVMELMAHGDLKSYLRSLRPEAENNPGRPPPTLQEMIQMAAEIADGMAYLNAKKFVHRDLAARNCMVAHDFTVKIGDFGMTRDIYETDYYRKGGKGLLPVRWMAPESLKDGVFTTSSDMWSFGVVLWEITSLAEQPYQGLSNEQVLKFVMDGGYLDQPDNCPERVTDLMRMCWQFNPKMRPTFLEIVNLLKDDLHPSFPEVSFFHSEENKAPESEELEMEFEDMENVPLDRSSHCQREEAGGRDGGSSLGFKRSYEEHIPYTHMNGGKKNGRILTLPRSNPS

[15] = 15 μM ATP, Table 1, read-out: IC50 GSK-3

SMILES | IC50 [1] | IC50 [2] | IC50 [3, 15] | melting point | also measured
CCCCc1c(-c2ccc(O)cc2)[nH]c2nccnc12 [39 (RP107)] | – | – | – | – | Mechanism of inhibition versus ATP, CDK1/cyclin B ([1]; ATP 0.1 to […], histone H1 0.7 mg/ml, double reciprocal plots): competitive inhibitor for ATP; IC50 ([3]; text summary of selectivity, read-out: IC50 GSK-3α/β): […]; IC50 [4]: > 100 µM; IC50 [5]: 18 µM; IC50 [6]: 22 µM; IC50 [7]: > 100 µM; IC50 [8]: 3.3 to 10 µM; IC50 [9]: > 100 µM; IC50 [10]: > 100 µM; IC50 [11]: > 100 µM; Cell cycle distribution, unsynchronised cells ([12]; NT2 cells, 20 μM for 40 h): accumulation in G2/M phase; Cell cycle distribution after G2/M synchronisation by nocodazole ([12]; NT2 cells, 20 μM for 40 h after nocodazole withdrawal): remained in G2/M; Cell cycle distribution after G0/G1 synchronisation by serum deprivation ([12]; NT2 cells, serum-enriched medium with 20 μM for 40 h): remained essentially in G0/G1; Signs of apoptosis ([12]; unsynchronised NT2 cells, 20 μM for 40 h): No signs of apoptosis were detectable; Exponential cell growth [13]: reversible inhibition of exponential cell growth; IC50 [14]: 60 µM
CCCCc1c(-c2ccc(Cl)cc2)[nH]c2nccnc12 [40 (RP108), 7-n-Butyl-6-(4-chlorophenyl)[5H]pyrrolo[2,3-b]pyrazine] | 0.2 µM | > 100 µM | 5.9 µM | 200 °C | –
CCCCCCCc1c(-c2ccc(OC)cc2)[nH]c2nccnc12 [41 (RP111), 7-n-Heptyl-6-(4-methoxyphenyl)[5H]pyrrolo[2,3-b]pyrazine] | 7 µM | > 100 µM | > 10 µM | 132.5 °C | –
c1ccc(Cc2c(-c3ccccc3)[nH]c3nccnc23)cc1 [44 (RP92), 7-Benzyl-6-phenyl[5H]pyrrolo[2,3-b]pyrazine] | 2 µM | > 100 µM | 1 µM | 209.8 °C | –

Second part, led by results:

IC50 [1] | IC50 [2] | IC50 [3, 15] | melting point | SMILES | also measured
2 µM | 4 µM | 1.1 µM | 256.1 °C (dec.) | COc1ccc(-c2cc3nccnc3[nH]2)cc1 [14 (RP11), 6-(4-Methoxyphenyl)[5H]pyrrolo[2,3-b]pyrazine] | –
> 100 µM | > 100 µM | > 100 µM | 252 °C (dec.) | Clc1cc(Cl)cc(-c2cc3nccnc3[nH]2)c1 [20 (RP15), 6-(3,5-Dichlorophenyl)[5H]pyrrolo[2,3-b]pyrazine] | –
6 µM | > 100 µM | 7.2 µM | 238 °C (dec.) | FC(F)(F)c1ccc(-c2cc3nccnc3[nH]2)cc1 [22 (RP8), 6-(4-Trifluoromethylphenyl)[5H]pyrrolo[2,3-b]pyrazine] | –
20 µM | > 100 µM | 12 µM | 271 °C (dec.) | CN(C)c1ccc(-c2cc3nccnc3[nH]2)cc1 [26 (RP129), 6-(4-Dimethylaminophenyl)[5H]pyrrolo[2,3-b]pyrazine] | –
